PubChem BioAssay (NCI)
“And” between values parts separate entries of the source, which are not always exact repeats. Equal values may be shown once.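 Test compounds were applied to cells in 96-well plates for 48 hours at 5 doses. At the GI50, growth is halved. TGI marks complete inhibition of growth.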

Experiments:
Test in all cases: inhibition of tumour cell growth, NCI panel, 48 h
NCI-H460 lung = test system: NCI-H460 lung
A549 NSCLC = test system: A549 NSCLC
NCI-H226 lung = test system: NCI-H226 lung
786-0 renal = test system: 786-0 renal
OVCAR-5 ovarian = test system: OVCAR-5 ovarian
UO-31 renal = test system: UO-31 renal
SK-MEL-5 melanoma = test system: SK-MEL-5 melanoma
K-562 leukemia = test system: K-562 leukemia
IGROV1 ovarian = test system: IGROV1 ovarian
SN12C renal = test system: SN12C renal

Row | SMILES | GI50 (NCI-H460 lung) | TGI (NCI-H460 lung) [µM] | GI50 (A549 NSCLC) | TGI (A549 NSCLC) [µM] | GI50 (NCI-H226 lung) | TGI (NCI-H226 lung) [µM] | GI50 (786-0 renal) | TGI (786-0 renal) [µM] | GI50 (OVCAR-5 ovarian) | TGI (OVCAR-5 ovarian) [µM] | GI50 (UO-31 renal) | TGI (UO-31 renal) [µM] | GI50 (SK-MEL-5 melanoma) | TGI (SK-MEL-5 melanoma) [µM] | GI50 (K-562 leukemia) | TGI (K-562 leukemia) [µM] | GI50 (IGROV1 ovarian) | TGI (IGROV1 ovarian) [µM] | GI50 (SN12C renal) | TGI (SN12C renal) [µM]
1 | Cn1cnc([N+](=O)[O-])c1Sc1ncnc2nc[nH]c12 | 6.58 µM and 16.5 µM | > 100 | 40 µM and > 67.3 µM | > 100 | 7.17 µM and > 27.2 µM | > 100 | 3.25 µM and 3.77 µM | > 100 | 8.42 µM and 53.2 µM | > 100 | 2.39 µM and 14.8 µM | > 100 | 12.1 µM and 14.4 µM | > 100 | 2.49 µM and 1.3 µM | > 100 | 9.13 µM and 12.1 µM | > 100 | 20.5 µM and 36.4 µM | > 100
2 | N#CC1C(N)=NNC1c1ccc(-c2ccc(-c3nc4ccccc4o3)cc2)o1 (centres undefined) | 23.8 µM | > 100 | 32.3 µM | > 100 | 15.1 µM | 74.5 | > 100 µM | > 100 | 38.1 µM | > 100 | 30.1 µM | > 100 | 21.4 µM | 60.5 | 64.6 µM | > 100 | 69.4 µM | > 100 | 45 µM | > 100
3 | O=Nc1c2cccnc2n2nnc3ccc(Cl)cc3c12 | 2.11 µM | 7.8 | 3.98 µM | 23.8 | 4.96 µM | 21 | 1.25 µM | 6.11 | 3.6 µM | 14.5 | 1.05 µM | 9.51 | 5.73 µM | 14.5 | 0.239 µM | 6.66 | 1.25 µM | 7.69 | 2.06 µM | 11.7
4 | CCCc1ccc(N=Cc2cc(OC)c(OC)c(OC)c2)cc1 |  | > 100 |  | > 100 |  | > 100 |  | > 100 |  | > 100 |  | > 100 |  | > 100 |  | > 72.6 |  | > 100 |  | > 100
5 | OCC1OC(N2C=C(c3nc4ccccc4s3)C3C=CC=CC32)C(O)C1O (centres undefined) | 9.91 µM | > 50 | 12.7 µM | 41.2 | 8.81 µM | 25.5 | 8.68 µM | 19.5 | 11.3 µM | 32.7 | 17.7 µM | > 50 | 6.1 µM | 14.5 | 16.3 µM | > 50 | 14.8 µM | > 50 | 11.1 µM | 34.3
6 | O=C1NC(=O)C(c2ccccc2Cl)=C1Nc1cccc(O)c1 | 7.12 µM | > 25 | 11.2 µM | > 25 | 6.19 µM | > 25 | 13.8 µM | > 25 | > 20.5 µM | > 25 | 7.24 µM | > 25 | 1.67 µM | > 25 | 1.32 µM | > 25 | > 25 µM | > 25 | > 19.4 µM | > 25
7 | O=c1c(OC/C(=N/O)c2ccccc2)c(-c2ccccc2)oc2ccccc12 | 11.3 µM | 27.5 | 30.3 µM | > 50 | 21.3 µM | > 50 | 19 µM | > 50 | 22.3 µM | > 50 | 19.2 µM | > 50 | 7.88 µM | 15 | 13.7 µM | > 50 |  |  | 11.2 µM | 28.7
8 | O=C1c2cccc3cc([N+](=O)[O-])cc(c23)C(=O)N1CCCN1CCN(CCCN2C(=O)c3cccc4cc([N+](=O)[O-])cc(c34)C2=O)CC1 |  | > 100 |  | > 100 |  | 1.37 |  | 5.55 |  | > 100 |  | 1.01 |  | 2.37 |  | > 100 |  | 15.4 |  | > 100
9 | C=C1C(=O)O[C@H]2[C@H]1CC/C(COC(=O)c1ccc(C(=O)O)s1)=C\CC[C@@]1(C)O[C@@H]21 | 3.33 µM | 10.8 | 5.35 µM | 18.4 | 12.2 µM | 30.5 | 1.54 µM | 3.09 | 3.05 µM | 10.1 | 1.4 µM | 3.04 | 3.64 µM | 13.3 | 1.47 µM | > 100 | 2.16 µM | 5.82 | 1.74 µM | 3.5
10 | CCOC(=O)c1c2ccc(/C=C/C(=O)OC)ccc-2c(C(=O)OCC)c1N |  | > 100 |  | > 100 |  | > 100 |  | > 100 |  | > 100 |  | > 100 |  | > 100 |  | > 100 |  | > 100 |  | 
11 | CCCCCCCCCCCC(=O)C1=C(O)C(O)CCC1=O (centres undefined) |  | 44.4 |  | > 100 |  | 70.3 |  | > 100 |  | 80.2 |  | 64.9 |  |  |  | 43 |  | 82.6 |  | 78.3
12 | Cc1ccc(S(=O)(=O)ON/N=C2/C3OC3[C@@H]3CCCC[C@H]23)cc1 (some centres undefined) |  | > 100 |  | > 100 |  | > 100 |  | > 100 |  |  |  | > 100 |  |  |  | > 100 |  | > 100 |  | > 100
13 | O=S(=O)(O)c1ccc2cc(N=Nc3cc(S(=O)(=O)O)c4cccnc4c3O)ccc2c1 |  | > 100 |  | > 100 |  | > 100 |  | > 100 |  | > 100 |  | > 100 |  | > 100 |  | > 100 |  | > 100 |  | 
14 | Cc1ccc(-n2c(C)nc3c2C(=O)c2ccccc2C3=O)cc1 |  | 19.5 |  | > 100 |  | > 100 |  | > 100 |  |  |  | > 100 |  | > 100 |  | > 100 |  | > 100 |  | > 100
15 | c1c[nH]c(Cc2ncc(Cc3cnc[nH]3)[nH]2)n1 |  | 96.2 |  | > 100 |  | 46.3 |  | 65.8 |  | 59.6 |  |  |  | 59.1 |  | > 100 |  | 85 |  | > 100
16 | COC(=O)c1ccc(OCc2ccc3oc(=O)c(-c4ccccc4)nc3c2)cc1 |  | > 100 |  | > 100 |  | > 100 |  | 66.5 |  | > 100 |  | > 100 |  | > 100 |  | > 100 |  |  |  | > 100
17 | COC1C(=O)CCC2(CO2)C1(O)C1(C)OC1CCC(C)C (centres undefined) |  | > 100 |  |  |  | > 100 |  | > 100 |  | > 100 |  | > 100 |  | > 100 |  | > 100 |  | > 100 |  | > 100
